Measured values reported in patent US4560685A, “2-Piperazino-pteridines useful as antithrombotics and antimetastatics” (Dr. Karl Thomae Gesellschaft mit beschrankter Haftung, priority 1984, dated 1985).

Tested on: mice
Assay: Approximate acute toxicity after oral administration
Format: in vivo
Conditions: single dose, observation period 14 days; for animals died: 250 mg/kg
Procedure: The approximate acute toxicity of the test compounds was determined on groups of 5 mice after oral administration of a single dose (observation period: 14 days).

Structure (SMILES)	animals died	Approximate acute toxicity [mg/kg]
CN(C)c1nc2nc(N3CCNCC3)nc(N(C)C)c2nc1Cl [B, 6-chloro-4,7-bis(dimethylamino)-2-piperazino-pteridine]	0 out of 5	> 250
CN(C)c1nc2nc(N3CCNCC3)nc(N(C)C)c2nc1SCc1ccccc1 [C, 6-benzylthio-4,7-bis-(dimethylamino)-2-piperazino-pteridine]	0 out of 5	> 250
c1ccc(CSc2nc3c(N4CCOCC4)nc(N4CCNCC4)nc3nc2N2CCOCC2)cc1 [Compound A, 6-benzylthio-4,7-dimorpholino-2-piperazino-pteridine]	0 out of 5	> 250
CSc1nc2c(N3CC[S+]([O-])CC3)nc(N3CCNCC3)nc2nc1NCc1ccccc1 [D, 7-benzylamino-6-methylthio-4-(1-oxido-thiomorpholino)-2-piperazino-pteridine]	0 out of 5	> 250
CN(C)c1nc(N2CCNCC2)nc2nc(NCc3ccccc3)c(Cl)nc12 [E, 6-chloro-2-piperazino-4-dimethylamino-7-benzylamino-pteridine]	0 out of 5	> 250
